From patent publication US9745267B2, “Compounds as modulators of RORC” (Boehringer Ingelheim International GmbH, priority 2013, dated 2017)

Each compound was assayed against T1, RORγt (hRORC LBD) (Homo sapiens, UniProt P51449) (assay: RGA Assay: nuclear receptor transactivation assay, RORγt transactivation of a luciferase reporter). Conditions: transiently transfected HEK 293 cells, Gal4DBD hRORC LBD, 20-24 hours incubation.
T1 construct: expressed in transfected cells; host or cells: HEK 293 (transient cotransfection with pGL4.3 luc2P/GAL4UAS/Hygro reporter)
T1 sequence (P51449 269-508 limits assumed): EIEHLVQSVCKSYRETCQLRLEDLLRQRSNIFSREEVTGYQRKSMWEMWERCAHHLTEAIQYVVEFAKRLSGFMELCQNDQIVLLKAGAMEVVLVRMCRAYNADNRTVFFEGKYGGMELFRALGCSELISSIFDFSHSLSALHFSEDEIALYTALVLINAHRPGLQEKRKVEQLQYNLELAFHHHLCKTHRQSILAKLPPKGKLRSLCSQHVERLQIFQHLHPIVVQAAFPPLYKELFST
Format: cell-based
Protocol: A nuclear receptor transactivation assay was performed to quantitate the ability of test compounds to inhibit RORγt transactivation of a luciferase reporter. A similar assay is described in: Khan et al., Bioorganic & Medicinal Chemistry Letters 23 (2013), 532-536. The system uses transiently transfected HEK 293 cells cotransfected with two plasmids (pGL4.3, luc2P/GAL4UAS/Hygro, and pBIND, Gal4DBD hRORC LBD1-3). The positive control is co-transiently transfected with both plasmids, and the negative control contains the pGL4.3 promoter sequence. Assays were assembled in 384 well plates where transiently transfected cells and test compound at varying concentrations were incubated for 20-24 hours. The next day, assays plates are taken out and equilibrated at RT for 20-30 minutes. Bright-Glo™ Luciferase Assay System is used to detect Luciferase production. After addition of Bright GLO detection reagent, the plates were incubated at RT for 20 minutes. The plates were read on an Envision plate reader to measure luminescence signal. The RLU signal is converted to POC relative to control and blank wells.
Compound Dilution Buffer:
Bright Glo Luciferase Assay System: Promega #E2620
Thaw lysis buffer provided in kit, add 100 mL lysis buffer to substrate powder.

Q: How did the IC50 turn out when `CNS(=O)(=O)c1ccc(CNC(=O)N2CC3(CCCC3)c3cc(Oc4cc(OC)ccc4C)ccc32)cc1` [Example 63] was run?
A: 1400 nM

Q: `CCCC1(C)CN(C(=O)NCc2ccc(S(=O)(=O)NC)cc2)c2ccc(-c3ccc(OC)cc3C(F)(F)F)cc21` (stereo not drawn) [Example 64] was tested. Which IC50 did it give?
A: 470 nM

Q: With `CCCC1(C)CN(C(=O)NCc2ccc(S(=O)(=O)NC)cc2)c2ccc(-c3ccc(F)cc3C)cc21` (stereo not drawn) [Example 65] as the compound, how does the IC50 read?
A: 1500 nM

Q: How did the IC50 turn out when `CCS(=O)(=O)c1ccc(CNC(=O)N2CC3(CCCC3)c3cc(-c4ccc(OC)cc4C(F)(F)F)ccc32)cc1` [Example 66] was run?
A: 410 nM

Q: `CCS(=O)(=O)c1ccc(CNC(=O)N2CC3(CCCC3)c3cc(-c4ccc(O)cc4C)ccc32)cc1` [Example 67] was tested. Which IC50 did it give?
A: 410 nM

Q: For `CNS(=O)(=O)c1ccc(CNC(=O)N2CC3(CCCC3)c3cc(-c4ccc(OC)nc4C)ccc32)cc1` [Example 68], which IC50 is on record?
A: 1900 nM

Q: Which IC50 does the source give for `CCS(=O)(=O)c1ccc(CNC(=O)N2CC3(CCCC3)c3cc(-c4ccc(CO)cc4C)ccc32)cc1` [Example 69] here?
A: 1100 nM

Q: Which IC50 does the source give for `CCS(=O)(=O)c1ccc(CNC(=O)N2CC3(CCCC3)c3cc(-c4ccc(C)cc4C#N)ccc32)cc1` [Example 70] here?
A: 1300 nM

Q: For `CCS(=O)(=O)c1ccc(CNC(=O)N2CC3(CCCC3)c3cc(-c4ccc(C#N)cc4C)ccc32)cc1` [Example 71], which IC50 is on record?
A: 740 nM

Q: With `CCS(=O)(=O)c1ccc(CNC(=O)N2CC3(CCCC3)c3cc(-c4cc(F)ccc4CC#N)ccc32)cc1` [Example 72] as the compound, how does the IC50 read?
A: 1200 nM

Q: With `CNS(=O)(=O)c1ccc(CNC(=O)N2CC3(CCCC3)c3cc(-c4ccccc4OC(F)(F)F)ccc32)cc1` [Example 73] as the compound, how does the IC50 read?
A: 460 nM

Q: With `CNS(=O)(=O)c1ccc(CNC(=O)N2CC3(CCCC3)c3cc(-c4c(F)cccc4C(F)(F)F)ccc32)cc1` [Example 75] as the compound, how does the IC50 read?
A: 140 nM

Q: With `CCS(=O)(=O)c1ccc(CNC(=O)N2CC3(CCCC3)c3cc(-c4cncnc4C(C)C)ccc32)cc1` [Example 76] as the compound, how does the IC50 read?
A: 610 nM

Q: Which IC50 does the source give for `CNS(=O)(=O)c1ccc(CNC(=O)N2CC3(CCCC3)c3cc(-c4cccc(F)c4C)ccc32)cc1` [Example 77] here?
A: 760 nM

Q: Which IC50 does the source give for `CCS(=O)(=O)c1ccc(CNC(=O)N2CC3(CCCC3)c3cc(-c4ccccc4-c4cnco4)ccc32)cc1` [Example 78] here?
A: 790 nM

Q: Which IC50 does the source give for `CNS(=O)(=O)c1ccc(CNC(=O)N2CC3(CCCC3)c3cc(-c4cc(F)ccc4C(=O)OC)ccc32)cc1` [Example 79] here?
A: 940 nM

Q: With `CCOC(=O)c1ccc(F)cc1-c1ccc2c(c1)C1(CCCC1)CN2C(=O)NCc1ccc(S(=O)(=O)NC)cc1` [Example 80] as the compound, how does the IC50 read?
A: 970 nM

Q: Which IC50 does the source give for `CNS(=O)(=O)c1ccc(CNC(=O)N2CC3(CCCC3)c3cc(-c4ccccc4COC(C)(C)C)ccc32)cc1` [Example 81] here?
A: 980 nM

Q: With `COc1ccc(-c2ccc3c(c2)C2(CCCC2)CN3C(=O)NCc2ccc(C#N)cc2)c(C(F)(F)F)c1` [Example 82] as the compound, how does the IC50 read?
A: 1100 nM

Q: For `CNS(=O)(=O)c1ccc(CNC(=O)N2CC3(CCCC3)c3cc(-c4cc(C)c(OC)cc4C)ccc32)cc1` [Example 83], which IC50 is on record?
A: 370 nM

Q: With `CNS(=O)(=O)c1ccc(CNC(=O)N2CC3(CCCC3)c3cc(-c4ccc(F)cc4C(=O)OC)ccc32)cc1` [Example 85] as the compound, how does the IC50 read?
A: 1300 nM

Q: For `CNS(=O)(=O)c1ccc(CNC(=O)N2CC3(CCCC3)c3cc(-c4ccccc4C(C)(C)O)ccc32)cc1` [Example 86], which IC50 is on record?
A: 1000 nM

Q: For `CNS(=O)(=O)c1ccc(CNC(=O)N2CC3(CCCC3)c3cc(-c4ccccc4CC(F)(F)F)ccc32)cc1` [Example 87], which IC50 is on record?
A: 680 nM

Q: How did the IC50 turn out when `CNS(=O)(=O)c1ccc(CNC(=O)N2CC3(CCCC3)c3cc(-c4ccc(O)cc4C#N)ccc32)cc1` [Example 88] was run?
A: 910 nM

Q: Which IC50 does the source give for `CNS(=O)(=O)c1ccc(CNC(=O)N2CC3(CCCC3)c3cc(-c4c(C)cc(CO)cc4C)ccc32)cc1` [Example 89] here?
A: 990 nM

Q: Which IC50 does the source give for `CNS(=O)(=O)c1ccc(CNC(=O)N2CC3(CCCC3)c3cc(-c4c(C)ccc(F)c4CC#N)ccc32)cc1` [Example 90] here?
A: 580 nM

Q: With `CNS(=O)(=O)c1ccc(CNC(=O)N2CC3(CCCC3)c3cc(-c4c(C)cccc4C#N)ccc32)cc1` [Example 91] as the compound, how does the IC50 read?
A: 870 nM

Q: How did the IC50 turn out when `CNS(=O)(=O)c1ccc(CNC(=O)N2CC3(CCCC3)c3cc(-c4cc(O)ccc4C)ccc32)cc1` [Example 92] was run?
A: 1100 nM

Q: Which IC50 does the source give for `CNS(=O)(=O)c1ccc(CNC(=O)N2CC3(CCCC3)c3cc(-c4cc(F)c(C#N)cc4C)ccc32)cc1` [Example 93] here?
A: 1200 nM

Q: How did the IC50 turn out when `CNS(=O)(=O)c1ccc(CNC(=O)N2CC3(CCCC3)c3cc(C4=C(C)CCCC4)ccc32)cc1` [Example 95] was run?
A: 340 nM

Q: With `COc1ccc(-c2ccc3c(c2)C2(CCCC2)CN3C(=O)NCc2ccc(C#N)cc2OC)c(C(F)(F)F)c1` [Example 96] as the compound, how does the IC50 read?
A: 450 nM

Q: Which IC50 does the source give for `COc1ccc(-c2ccc3c(c2)C2(CCCC2)CN3C(=O)NCc2ccc(C#N)c(C)c2)c(C(F)(F)F)c1` [Example 97] here?
A: 770 nM

Q: For `CNS(=O)(=O)c1ccc(CNC(=O)N2CC3(CCCC3)c3cc(-c4cc(CN)ccc4C)ccc32)cc1` [Example 98], which IC50 is on record?
A: 1200 nM

Q: Which IC50 does the source give for `COCCOc1cc(C#N)ccc1CNC(=O)N1CC2(CCCC2)c2cc(-c3ccc(OC)cc3C(F)(F)F)ccc21` [Example 100] here?
A: 1200 nM

Q: Which IC50 does the source give for `COCCOc1cc(S(C)(=O)=O)ccc1CNC(=O)N1CC2(CCCC2)c2cc(-c3ccc(OC)cc3C(F)(F)F)ccc21` [Example 101] here?
A: 1100 nM

Q: With `COc1cc(C#N)ccc1CNC(=O)N1CC2(CCCC2)c2cc(-c3ccc(O)cc3C(F)(F)F)ccc21` [Example 102] as the compound, how does the IC50 read?
A: 180 nM

Q: Which IC50 does the source give for `CNS(=O)(=O)c1ccc(CNC(=O)N2CC3(CCCC3)c3cc(-c4cc(CN5CCC(O)C5)ccc4C)ccc32)cc1` (stereo not drawn) [Example 103] here?
A: 1800 nM

Q: With `CCS(=O)(=O)c1ccc(CNC(=O)N2CC3(CCCC3)c3cc(-c4ccc(OC)cc4C(F)(F)F)ccc32)c(OC)c1` [Example 104] as the compound, how does the IC50 read?
A: 350 nM

Q: For `COc1ccc(-c2ccc3c(c2)C2(CCCC2)CN3C(=O)NCc2ccc(S(C)(=O)=O)cc2OC)c(C(F)(F)F)c1` [Example 105], which IC50 is on record?
A: 430 nM

Q: With `CN(C)c1ncc(-c2ccc3c(c2)C2(CCCC2)CN3C(=O)NCc2ccc(S(C)(=O)=O)cc2)c(C(F)(F)F)n1` [Example 106] as the compound, how does the IC50 read?
A: 650 nM

Q: With `CCC(C)c1ncncc1-c1ccc2c(c1)C1(CCCC1)CN2C(=O)NCc1ccc(S(C)(=O)=O)cc1` (stereo not drawn) [Example 107] as the compound, how does the IC50 read?
A: 1500 nM

Q: Which IC50 does the source give for `COc1ncc(-c2ccc3c(c2)C2(CCCC2)CN3C(=O)NCc2ccc(S(C)(=O)=O)cc2)c(C2CC2)n1` [Example 108] here?
A: 1600 nM

Q: With `COc1ncnc(C)c1-c1ccc2c(c1)C1(CCCC1)CN2C(=O)NCc1ccc(S(C)(=O)=O)cc1` [Example 109] as the compound, how does the IC50 read?
A: 1700 nM

Q: For `COc1ncnc(C(F)(F)F)c1-c1ccc2c(c1)C1(CCCC1)CN2C(=O)NCc1ccc(S(C)(=O)=O)cc1` [Example 110], which IC50 is on record?
A: 600 nM

Q: How did the IC50 turn out when `CCS(=O)(=O)c1ccc(CNC(=O)N2CC3(CCCC3)c3cc(-c4cnc(N)nc4C(F)(F)F)ccc32)cc1` [Example 111] was run?
A: 1700 nM

Q: How did the IC50 turn out when `CCS(=O)(=O)c1ccc(CNC(=O)N2CC3(CCCC3)c3cc(-c4c(OC)ncnc4C4CC4)ccc32)cc1` [Example 112] was run?
A: 520 nM

Q: With `CCS(=O)(=O)c1ccc(CNC(=O)N2CC(C)(C3CC3)c3cc(-c4cncnc4C(C)C)ccc32)cc1` (stereo not drawn) [Example 113] as the compound, how does the IC50 read?
A: 530 nM

Q: Which IC50 does the source give for `CCS(=O)(=O)c1ccc(CNC(=O)N2CC3(CCCC3)c3cc(-c4c(C)ccnc4OC)ccc32)cc1` [Example 114] here?
A: 500 nM

Q: For `CCS(=O)(=O)c1ccc(CNC(=O)N2CC(C)(C3CCC3)c3cc(-c4cncnc4C(C)C)ccc32)cc1` (stereo not drawn) [Example 116], which IC50 is on record?
A: 1000 nM

Q: With `CCS(=O)(=O)c1ccc(CNC(=O)N2CC(C)(C3CCC3)c3cc(-c4c(OC)ncnc4C4CC4)ccc32)cc1` (stereo not drawn) [Example 117] as the compound, how does the IC50 read?
A: 480 nM

Q: With `CCC1(C2CC2)CN(C(=O)NCc2ccc(S(=O)(=O)CC)cc2)c2ccc(-c3c(OC)ncnc3C3CC3)cc21` (stereo not drawn) [Example 118] as the compound, how does the IC50 read?
A: 470 nM

Q: How did the IC50 turn out when `CCS(=O)(=O)c1ccc(CNC(=O)N2CC3(CCCC3)c3cc(-c4cnc(N(C)C)nc4C4CC4)ccc32)cc1` [Example 119] was run?
A: 320 nM

Q: How did the IC50 turn out when `CCS(=O)(=O)c1ccc(CNC(=O)N2CC(C)(C3CC3)c3cc(-c4c(OC)ncnc4C4CC4)ccc32)cc1` (stereo not drawn) [Example 120] was run?
A: 280 nM

Q: For `CCS(=O)(=O)c1ccc(CNC(=O)N2CC3(CCCC3)c3cc(-c4c(OC)ncnc4OC)ccc32)cc1` [Example 121], which IC50 is on record?
A: 600 nM

Q: How did the IC50 turn out when `CCS(=O)(=O)c1ccc(CNC(=O)N2CC3(CCCC3)c3cc(-c4c(OC)nc(C)nc4C4CC4)ccc32)cc1` [Example 122] was run?
A: 1100 nM

Q: Which IC50 does the source give for `CCS(=O)(=O)c1ccc(CNC(=O)N2CC3(CCCC3)c3cc(-c4cc(CN5CCC(C#N)CC5)ccc4C)ccc32)cc1` [Example 123] here?
A: 600 nM

Q: For `CCS(=O)(=O)c1ccc(CNC(=O)N2CC3(CCCC3)c3cc(-c4cc(CN5CCS(=O)(=O)CC5)ccc4C)ccc32)cc1` [Example 124], which IC50 is on record?
A: 1400 nM

Q: `CCS(=O)(=O)c1ccc(CNC(=O)N2CC3(CC3)c3cc(-c4c(OC)ncnc4C4CC4)ccc32)cc1` [Example 125] was tested. Which IC50 did it give?
A: 1100 nM

Q: For `CCS(=O)(=O)c1ccc(CNC(=O)N2C[C@@](C)(C3CC3)c3cc(-c4c(OC)ncnc4C4CC4)ccc32)cc1` [Example 126], which IC50 is on record?
A: 400 nM

Q: Which IC50 does the source give for `CCS(=O)(=O)c1ccc(CNC(=O)N2C[C@](C)(C3CC3)c3cc(-c4c(OC)ncnc4C4CC4)ccc32)cc1` [Example 127] here?
A: 500 nM
